Source: patent US20110077230A1, “COPPER ORGANOCOMPLEXES, USE THEREOF AS ANTITUMOR MEANS AND FOR PROTECTING HEALTHY TISSUE FROM IONIZING RADIATION” (CHARITE - UNIVERSITATSMEDIZIN BERLIN, priority 2008, published 2011)

Key:
[1] = system: Ehrlich ascites carcinoma (EAC) cells; assay: NADH state (fluorescence) in EAC cells; type: cell-based, mice
Protocol: (§1) The Ehrlich ascites carcinoma (EAC) was obtained from white male mice of the strain MNR1 and the thymocytes from the thymus of rats of the Wistar line. Vitality of the cells was tested by vital staining using trypan blue and experiments and determined to be no less than 95% in all experiments. The NADH state in the EAC cells was assessed with reference to their fluorescence intensity. Measurement of the intracellular calcium concentration was performed according to the standard methodology of fluorescence using chlortetracycline. The membrane potential was measured using the fluorescent dye No. 1104. NADH is a source of electrons in the oxidative phosphorylation process. […] These effects are directed to inhibiting the NAD-dependent dehydrogenase. As a result, the respiratory chain in the tumor cells is inhibited.

melanoma B 16 [2] = assay: B 16 melanoma in mice, intraabdominal administration; type: in vivo, mice of the line C 57Bl; settings: for Average volume of tumor / Average weight of tumor: days 3, 5, 7, 9
Protocol: The melanoma B 16 was implanted in 20 mice of the line C 57Bl by subcutaneous injection into the right thigh. The animals were divided into four groups of five mice each. Group I received complex A at a dosage of 7 mg/kg, dissolved in DMSO, which was administered intraabdominally in a 4% suspension in physiological saline. Each administration was performed 3, 5, 7 and 9 days after trans-plantation of the tumor.
Group II was treated as group I, but using a dosage of 5 mg/kg.
Group III was treated as group I, but received 5 mg/kg of melphalan hydrochloride instead of complex A.
Group IV remained untreated.

melanoma B 16 [3] = assay: B 16 melanoma in mice, peroral administration versus intraabdominal injection; type: in vivo, mice of the line C 57Bl; set-up: Average weight of tumor: unit not given here; settings: for Average weight of tumor: day 16
Protocol: The melanoma B 16 was implanted in 23 mice of the line C 57Bl by subcutaneous injection into the right thigh. The animals were divided into five groups of four to five mice each.
Group I received complex A at a dosage of 7 mg/kg as a suspension in olive oil which was administered perorally 3, 5, 7 and 9 days after transplantation of the tumor.
Group II was treated as group I, but using a dosage of 10 mg/kg administered on the 3rd, 4th, 5th, 6th, 7th, 8th, 9th and 10th day.
Group III was treated as group II, but using a dosage of 15 mg/kg.
Group IV received complex A 3, 5, 7 and 9 days after transplantation of the tumor at a dosage of 7 mg/kg, dissolved in DMSO, to which end the solution was administered by injection in the form of a 4% suspension in physiological saline.
Group V received no treatment.
On day 16 of the experiment the animals were sacrificed and examined.

[4] = system: Ehrlich ascites adenocarcinoma; assay: Ehrlich ascites adenocarcinoma in mice; type: in vivo, white mice
Protocol: The tumor was implanted intraabdominally in white mice of no particular race.
Group I received complex A orally as a suspension in olive oil at a dosage of 10 mg/kg 3, 4, 5, 6, 7, 8, 9 and 10 days after tumor implantation.
Group II received the same treatment, but using sarcolysine instead of complex A.
Group III received no treatment.
The animals were sacrificed and examined on the 11th day after tumor implantation.

EAC cells = assay: Cytosolic calcium (chlortetracycline fluorescence) in EAC cells; type: cell-based, mice; settings: depending on the dose
Protocol: as §1
The concentration of intracellular calcium is a trigger for a number of intracellular processes (FIG. 17c, 17d).

[5] = system: human mammary gland tumor cells; assay: In vitro effect on human mammary gland tumor cells (trypan blue, photography); type: cell-based
Protocol: From a patient with mammary carcinoma already showing signs of decay, postoperational material was collected and the tumor cells were separated therefrom. A suspension of these tumor cells was added with trypan blue dye and complex A. During the course of the test, three cells situated closely to each other (A, B and C) were documented by photography (FIGS. 22a, 22b and 22c). After incubating for 18 minutes, wrinkling of the membrane of cell A and invagination of the membrane of cell B can be recognized. After 28 minutes of incubation, cell fragments become stained with trypan blue, a sign that apoptosis has begun. After 43 minutes of incubation, membrane components and the contents thereof detach from the cells.

[6] = system: Human lymphoma cells (BJAB); assay: In vivo inhibition of tumor growth, BJAB implanted in SCID mice; settings: 10 mg/kg peroral, suspended in olive oil
Protocol: Human lymphoma cells (BJAB) were implanted in six SCID mice. After a tumor with a diameter of 5 mm had formed, the mice were subjected to peroral treatment with complex A at a dose of 10 mg/kg, suspended in olive oil. The control group consisted of 10 animals treated with olive oil only.
* denotes the significance (p≦0.05) in the Mann-Whitney U-test.

[7] = system: colon adenocarcinoma tumor (AKATOL); assay: Transplanted colon adenocarcinoma (AKATOL), peroral administration; type: in vivo, mice of the BALB line; settings: for Average weight of tumor: days 3 to 10, day 21
Protocol: Tumor cells were transplanted in mice of the BALB line by injection into the thighs. 3 of 4 groups received the respective preparation on the peroral route 3, 4, 5, 6, 7, 8, 9 and 10 days after tumor implantation.
Group I: 10 mg/kg complex A suspended in olive oil.
Group II: 5 mg/kg complex A suspended in olive oil.
Group III: 10 mg/kg sarcolysine suspended in olive oil.
On day 21 of the experiment the animals were sacrificed and examined.

For “Copper-sarcolysine hydrochloride complex [complex A]”, the response to oligomycin [1] was “reduce the response to oligomycin”, the “Apoptotic index AI” value (melanoma B 16 [2]; 5 mg/kg intraabdominally) was 3.68 ‰ and the “Bone marrow index MI BM” value (melanoma B 16 [2]; 5 mg/kg intraabdominally) was 3.975 ‰. For the same substance, the “Inhibition of tumor growth, mass percent” value (melanoma B 16 [2]; 5 mg/kg intraabdominally) was “mass percent 84.44%”, the “Inhibition of tumor growth, volume percent” value (melanoma B 16 [2]; 5 mg/kg intraabdominally) was “volume percent 80.00%” and the “Mitotic index of tumor cells MI” value (melanoma B 16 [2]; 5 mg/kg intraabdominally) was 2.175 ‰. For the same substance, the “Average volume of tumor” value (melanoma B 16 [2]; 5 mg/kg intraabdominally) was 0.436 cm^3, the “Average weight of tumor” value (melanoma B 16 [2]; 5 mg/kg intraabdominally) was 202.25 mg and the “Apoptotic index AI” value (melanoma B 16 [2]; 7 mg/kg intraabdominally) was 4.25 ‰. For the same substance, the “Bone marrow index MI BM” value (melanoma B 16 [2]; 7 mg/kg intraabdominally) was 3.575 ‰, the “Inhibition of tumor growth, mass percent” value (melanoma B 16 [2]; 7 mg/kg intraabdominally) was “mass percent 89.5%” and the “Inhibition of tumor growth, volume percent” value (melanoma B 16 [2]; 7 mg/kg intraabdominally) was “volume percent 98.67%”. The “Mitotic index of tumor cells MI” value (melanoma B 16 [2]; 7 mg/kg intraabdominally) was 1.3. ‰, the “Average volume of tumor” value (melanoma B 16 [2]; 7 mg/kg intraabdominally) was 0.029 cm^3 and the “Average weight of tumor” value (melanoma B 16 [2]; 7 mg/kg intraabdominally) was 136.8 mg. For the same substance, the “% inhibition, mass percent” value (melanoma B 16 [3]; Group I: peroral 7 mg/kg) was 62.0%, the “% inhibition, volume percent” value (melanoma B 16 [3]; Group I: peroral 7 mg/kg) was 84.1% and the “Average volume of tumor” value (melanoma B 16 [3]; Group I: peroral 7 mg/kg) was 1.39 cm^3. For the same substance, the “Average weight of tumor” value (melanoma B 16 [3]; Group I: peroral 7 mg/kg in olive oil, days 3, 5, 7, 9) was 0.96 ± 0.14, the “% inhibition, mass percent” value (melanoma B 16 [3]; Group II: peroral 10 mg/kg) was 73.10% and the “% inhibition, volume percent” value (melanoma B 16 [3]; Group II: peroral 10 mg/kg) was 76.0%. For the same substance, the “Average volume of tumor” value (melanoma B 16 [3]; Group II: peroral 10 mg/kg) was 1.55 cm^3, the “Average weight of tumor” value (melanoma B 16 [3]; Group II: peroral 10 mg/kg, days 3 to 10) was 0.68 ± 0.34 and the “% inhibition, mass percent” value (melanoma B 16 [3]; Group III: peroral 15 mg/kg) was 100%. The “% inhibition, volume percent” value (melanoma B 16 [3]; Group III: peroral 15 mg/kg) was 100%, the “Average volume of tumor” value (melanoma B 16 [3]; Group III: peroral 15 mg/kg) was 0 cm^3 and the “Average weight of tumor” value (melanoma B 16 [3]; Group III: peroral 15 mg/kg, days 3 to 10) was 0. For the same substance, the “% inhibition, mass percent” value (melanoma B 16 [3]; Group IV: injection 7 mg/kg) was 68.0%, the “% inhibition, volume percent” value (melanoma B 16 [3]; Group IV: injection 7 mg/kg) was 76.7% and the “Average volume of tumor” value (melanoma B 16 [3]; Group IV: injection 7 mg/kg) was 1.5 cm^3. The “Average weight of tumor” value (melanoma B 16 [3]; Group IV: injection 7 mg/kg in DMSO/physiological saline, days 3, 5, 7, 9) was 1.025 ± 0.39, the “fate of the tumor” value (melanoma B 16 [3]; group 3: peroral 15 mg/kg) was “disappeared completely” and the “% inhibition” value ([4]; 10 mg/kg orally) was 75.3%. The “Average MI of bone marrow” value ([4]; 10 mg/kg orally) was 0.95 ± 0.47 ‰, the “Average MI of tumor cells” value ([4]; 10 mg/kg orally) was 1.0 ± 0.7 ‰ and the “Average number of tumor cells” value ([4]; 10 mg/kg orally in olive oil, days 3 to 10, day 11) was 40′ 10^6. The “concentration of cytosolic calcium” value (EAC cells) was “increase”, the “incubation time to wrinkling / invagination of the cell membrane” value [5] was 18 min and the “incubation time until cell fragments stain with trypan blue (apoptosis has begun)” value [5] was 28 min. The “incubation time until membrane components and contents detach from the cells” value [5] was 43 min, the “inhibition of tumor growth” value [6] was “significant inhibition of tumor growth” and the “% inhibition” value ([7]; 5 mg/kg peroral in olive oil) was 68%. For the same substance, the “Average weight of tumor” value ([7]; 5 mg/kg peroral in olive oil) was 1.04 g, the “% inhibition” value ([7]; 10 mg/kg peroral in olive oil) was 81.5% and the “Average weight of tumor” value ([7]; 10 mg/kg peroral in olive oil) was 0.71 g.
